Read-outs that look alike come from different tables or passages of the source.
Columns and labels:
Water solubility = format: physicochemical; details: between pH 1 and 8
[1] = Pharmacokinetics in pediatric patients, open label multiple dose study; details: human, in vivo; for AUC: read-out: AUCtau, Mean; for Tmax: read-out: Tmax, Median; for half-life: read-out: T½, Mean (converted)
Description: An open label, multiple dose pharmacokinetic and pharmacodynamic study was performed in 24 pediatric patients, ages 6-17 years. […] Blood samples were collected on days one and eight and pharmacokinetics were assessed using a non-compartmental analysis approach.

[2] = 2 mg/kg, 6-11 yrs old, 2 mg/kg, Day 1
[3] = 2 mg/kg, 6-11 yrs old, 2 mg/kg, Day 8
[4] = 2 mg/kg, 12-17 yrs old, 2 mg/kg, Day 1
[5] = 2 mg/kg, 12-17 yrs old, 2 mg/kg, Day 8
[6] = 6 mg/kg, 6-11 yrs old, 6 mg/kg, Day 1
[7] = 6 mg/kg, 6-11 yrs old, 6 mg/kg, Day 8
[8] = 6 mg/kg, 12-17 yrs old, 6 mg/kg, Day 1
[9] = 6 mg/kg, 12-17 yrs old, 6 mg/kg, Day 8

COCCCOc1cc(C[C@@H](C[C@H](N)[C@@H](O)C[C@H](C(=O)NCC(C)(C)C(N)=O)C(C)C)C(C)C)ccc1OC [Aliskiren, 2(S),4(S),5(S),7(S)—N-(3-amino-2,2-dimethyl-3-oxopropyl)-2,7-di(1-methylethyl)-4-hydroxy-5-amino-8-[4-methoxy-3-(3-methoxy-propoxy)phenyl]-octanamide]
solubility (Water solubility): > 350 mg/mL
Cmax [1, 2]: 39 ng/mL
AUC [1, 2]: 149 ng·h/mL
Tmax [1, 2]: 0.5 h
Cmax [1, 3]: 48 ng/mL
AUC [1, 3]: 240 ng·h/mL
Tmax [1, 3]: 0.5 h
half-life [1, 3]: 40 h
Cmax [1, 4]: 136 ng/mL
AUC [1, 4]: 391 ng·h/mL
Tmax [1, 4]: 1 h
Cmax [1, 5]: 279 ng/mL
AUC [1, 5]: 846 ng·h/mL
Tmax [1, 5]: 1 h
half-life [1, 5]: 40 h
Cmax [1, 6]: 323 ng/mL
AUC [1, 6]: 1840 ng·h/mL
Tmax [1, 6]: 1.3 h
Cmax [1, 7]: 259 ng/mL
AUC [1, 7]: 956 ng·h/mL
Tmax [1, 7]: 0.8 h
half-life [1, 7]: 36 h
Cmax [1, 8]: 424 ng/mL
AUC [1, 8]: 1800 ng·h/mL
Tmax [1, 8]: 1.8 h
Cmax [1, 9]: 486 ng/mL
AUC [1, 9]: 2090 ng·h/mL
Tmax [1, 9]: 2 h
half-life [1, 9]: 42 h

From US20110287100A1, “Galenic Formulations of Organic Compounds” (priority 2009, published 2011)
